Measured values from ChEMBL document CHEMBL5260854, “Discovery of Novel TRPM8 Blockers Suitable for the Treatment of Somatic and Ocular Painful Conditions: A Journey through pKa and LogD Modulation” (J Med Chem, 2021).
Converted amounts (≈) assume the structure as drawn. The source made the active and inactive calls. The rule behind the calls is not given here.

How the values were obtained:
[1] = Metabolic stability in rat liver microsomes assessed as phase 2 metabolism by measuring half life; format: ADME, Microsome
[2] = Dissociation constant, pKa of the compound; format: physicochemical
[3] = Lipophilicity, logD of the compound at pH 7.4; format: physicochemical; details: buffer
[4] = Metabolic stability in rat liver microsomes assessed as phase 1 metabolism by measuring half life; format: ADME, Microsome
[5] = biological target: T1, Transient receptor potential cation channel subfamily M member 8 (Homo sapiens, UniProt Q7Z2W7); assay: Inhibition of human TRPM8 expressed in HEK293 cells assessed as reduction in ethyl 4-methoxy-2-phenylthiazole-5-carboxylate induced Ca2+ efflux preincubated for 5 mins followed by ethyl 4-methoxy-2-phenylthiazole-5-carboxylate addition and measured for 3 mins by FLIPR assay; format: cell-based
[6] = Clearance in rat at 3 mg/kg, iv; format: ADME, organism-based; details: in vivo
[7] = Half life in rat at 10 mg/kg, po; format: ADME, organism-based; details: in vivo
[8] = Cmax in rat at 10 mg/kg, po; format: ADME, organism-based; set-up: dose 10 mg/kg, route po; details: in vivo
[9] = Half life in rat at 3 mg/kg, iv; format: ADME, organism-based; details: in vivo
[10] = Stability in human plasma assessed as compound remaining after 60 mins; format: ADME, cell-free; details: read-out: Stability
[11] = Stability in rat plasma assessed as compound remaining after 60 mins; format: ADME, cell-free; details: read-out: Stability
[12] = Stability in human hepatocytes assessed as half life; format: ADME, cell-based, Hepatocyte
[13] = Solubility of compound at pH 7.4; format: physicochemical; details: buffer
[14] = Metabolic stability in rat liver microsomes assessed as parent compound remaining after 30 mins; format: ADME, Microsome; details: for remaining at 0.5 h: read-out: Stability
[15] = Oral bioavailability in rat at 10 mg/kg; format: ADME, organism-based; details: in vivo
[16] = Volume of distribution at steady state in rat at 3 mg/kg, iv; format: ADME, organism-based; details: in vivo, read-out: Vdss
[17] = Lipophilicity, logP of compound; format: physicochemical; details: octanol/water
[18] = biological target: T1, Transient receptor potential cation channel subfamily M member 8; assay: Inhibition of human TRPM8 expressed in HEK293 cells assessed as reduction in icilin induced Ca2+ efflux preincubated for 5 mins followed by icilin addition and measured for 3 mins by FLIPR assay; format: cell-based
[19] = Metabolic stability in human liver S9 fraction assay as half life in presence of NADPH, glutathione, UDPGA and PAPS; format: ADME, subcellular
[20] = Apparent permeability in HCECs at 0.1%; format: ADME, cell-based, HCEC; details: human, not told
[21] = biological target: Transient receptor potential cation channel subfamily V member 1 (Homo sapiens) (UniProt Q8NER1); assay: Inhibition of TRPV1 (unknown origin) upto 100 uM
[22] = biological target: Sodium channel protein type 9 subunit alpha (Homo sapiens) (UniProt Q15858); assay: Inhibition of Nav1.7 (unknown origin)
[23] = biological target: Transient receptor potential cation channel subfamily V member 4 (Homo sapiens) (UniProt Q9HBA0); assay: Inhibition of TRPV4 (unknown origin) upto 100 uM
[24] = biological target: Transient receptor potential cation channel subfamily A member 1 (Homo sapiens) (UniProt O75762); assay: Inhibition of TRPA1 (unknown origin) upto 100 uM
[25] = Clearance in rat at 10 mg/kg, iv; format: ADME, organism-based; details: in vivo
[26] = Half life in rat at 10 mg/kg, iv; format: ADME, organism-based; details: in vivo
[27] = Metabolic stability in rat liver microsomes assessed as parent compound remaining after 4 hrs; format: ADME, Microsome; details: read-out: Stability
[28] = Stability in stimulated gastric fluid at pH 1.2; format: physicochemical; details: simulated gi fluid
[29] = Volume of distribution at steady state in rat at 10 mg/kg, iv; format: ADME, organism-based; details: in vivo, read-out: Vdss
[30] = Half life in rat at 5 mg/kg, iv; format: ADME, organism-based; details: in vivo
[31] = Clearance in rat at 5 mg/kg, iv; format: ADME, organism-based; details: in vivo
[32] = biological target: Transient receptor potential cation channel subfamily M member 3 (Homo sapiens) (UniProt Q9HCF6); assay: Inhibition of TRPM3 (unknown origin) upto 100 uM
[33] = Volume of distribution at steady state in rat at 5 mg/kg, iv; format: ADME, organism-based; details: in vivo, read-out: Vdss
[34] = biological target: T1, Transient receptor potential cation channel subfamily M member 8; assay: Inhibition of human TRPM8 expressed in HEK293 cells assessed as reduction in cold stimulated Ca2+ efflux preincubated for 5 mins followed by cold stimulation and measured for 3 mins; format: cell-based

T1 sequence (Q7Z2W7 whole entry): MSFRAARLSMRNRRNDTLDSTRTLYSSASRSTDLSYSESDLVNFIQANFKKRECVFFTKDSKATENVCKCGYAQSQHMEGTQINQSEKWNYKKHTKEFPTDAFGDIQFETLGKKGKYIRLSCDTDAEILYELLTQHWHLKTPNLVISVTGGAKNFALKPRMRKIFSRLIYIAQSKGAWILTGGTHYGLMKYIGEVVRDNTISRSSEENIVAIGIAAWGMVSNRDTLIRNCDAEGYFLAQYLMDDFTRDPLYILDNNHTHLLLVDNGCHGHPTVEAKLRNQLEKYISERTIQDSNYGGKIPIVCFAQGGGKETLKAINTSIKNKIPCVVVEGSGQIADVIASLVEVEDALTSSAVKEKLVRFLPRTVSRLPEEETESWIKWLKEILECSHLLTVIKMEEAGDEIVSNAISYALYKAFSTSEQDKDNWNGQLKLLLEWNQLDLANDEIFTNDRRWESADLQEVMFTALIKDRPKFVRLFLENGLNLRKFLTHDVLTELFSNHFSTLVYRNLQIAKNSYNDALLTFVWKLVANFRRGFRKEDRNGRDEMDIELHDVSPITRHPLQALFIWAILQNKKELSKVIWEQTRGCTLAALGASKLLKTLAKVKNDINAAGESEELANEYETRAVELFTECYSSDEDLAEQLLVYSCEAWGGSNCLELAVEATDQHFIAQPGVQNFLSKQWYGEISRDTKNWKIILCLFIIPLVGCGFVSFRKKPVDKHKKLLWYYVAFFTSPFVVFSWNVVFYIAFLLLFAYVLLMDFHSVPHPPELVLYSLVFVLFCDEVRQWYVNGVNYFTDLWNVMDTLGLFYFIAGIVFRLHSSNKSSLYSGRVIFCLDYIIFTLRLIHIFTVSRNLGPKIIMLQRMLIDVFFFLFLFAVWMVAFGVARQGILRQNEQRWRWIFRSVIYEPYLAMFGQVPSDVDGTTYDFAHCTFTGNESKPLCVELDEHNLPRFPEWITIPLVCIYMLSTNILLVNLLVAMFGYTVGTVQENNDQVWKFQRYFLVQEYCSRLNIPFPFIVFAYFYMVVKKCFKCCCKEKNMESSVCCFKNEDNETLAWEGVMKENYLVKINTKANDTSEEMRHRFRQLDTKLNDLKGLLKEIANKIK
Chain of Transient receptor potential cation channel subfamily A member 1 (Homo sapiens) (O75762 whole entry): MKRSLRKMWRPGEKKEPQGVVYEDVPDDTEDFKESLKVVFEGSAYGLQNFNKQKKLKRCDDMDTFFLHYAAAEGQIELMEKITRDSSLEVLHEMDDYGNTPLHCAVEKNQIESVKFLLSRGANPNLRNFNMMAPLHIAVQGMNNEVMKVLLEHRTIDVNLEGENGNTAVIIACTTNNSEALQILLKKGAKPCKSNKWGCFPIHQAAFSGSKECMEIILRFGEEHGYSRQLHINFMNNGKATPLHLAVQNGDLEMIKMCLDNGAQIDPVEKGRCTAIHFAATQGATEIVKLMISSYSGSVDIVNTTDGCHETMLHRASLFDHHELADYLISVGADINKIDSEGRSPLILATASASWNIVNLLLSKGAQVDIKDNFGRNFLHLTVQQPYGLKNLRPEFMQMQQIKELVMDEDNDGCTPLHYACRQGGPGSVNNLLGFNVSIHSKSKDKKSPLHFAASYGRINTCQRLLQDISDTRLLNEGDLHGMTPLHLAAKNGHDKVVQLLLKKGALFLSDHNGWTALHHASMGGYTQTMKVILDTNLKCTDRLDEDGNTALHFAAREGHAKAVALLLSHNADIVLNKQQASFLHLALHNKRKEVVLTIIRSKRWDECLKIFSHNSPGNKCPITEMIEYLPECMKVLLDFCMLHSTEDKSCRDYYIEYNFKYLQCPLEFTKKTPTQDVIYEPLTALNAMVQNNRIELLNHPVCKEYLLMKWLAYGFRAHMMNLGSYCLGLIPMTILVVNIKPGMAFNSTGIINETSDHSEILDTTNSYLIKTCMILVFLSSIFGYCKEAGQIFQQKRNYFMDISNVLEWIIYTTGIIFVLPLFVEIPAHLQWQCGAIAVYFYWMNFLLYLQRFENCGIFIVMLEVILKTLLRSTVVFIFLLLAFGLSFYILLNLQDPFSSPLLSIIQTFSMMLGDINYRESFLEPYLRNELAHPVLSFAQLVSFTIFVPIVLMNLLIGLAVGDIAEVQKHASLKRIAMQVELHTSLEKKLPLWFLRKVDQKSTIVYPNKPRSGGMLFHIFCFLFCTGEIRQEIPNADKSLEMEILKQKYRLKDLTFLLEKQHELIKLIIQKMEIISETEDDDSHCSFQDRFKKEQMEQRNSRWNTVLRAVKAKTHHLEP
Chain of Transient receptor potential cation channel subfamily V member 4 (Homo sapiens) (Q9HBA0 whole entry): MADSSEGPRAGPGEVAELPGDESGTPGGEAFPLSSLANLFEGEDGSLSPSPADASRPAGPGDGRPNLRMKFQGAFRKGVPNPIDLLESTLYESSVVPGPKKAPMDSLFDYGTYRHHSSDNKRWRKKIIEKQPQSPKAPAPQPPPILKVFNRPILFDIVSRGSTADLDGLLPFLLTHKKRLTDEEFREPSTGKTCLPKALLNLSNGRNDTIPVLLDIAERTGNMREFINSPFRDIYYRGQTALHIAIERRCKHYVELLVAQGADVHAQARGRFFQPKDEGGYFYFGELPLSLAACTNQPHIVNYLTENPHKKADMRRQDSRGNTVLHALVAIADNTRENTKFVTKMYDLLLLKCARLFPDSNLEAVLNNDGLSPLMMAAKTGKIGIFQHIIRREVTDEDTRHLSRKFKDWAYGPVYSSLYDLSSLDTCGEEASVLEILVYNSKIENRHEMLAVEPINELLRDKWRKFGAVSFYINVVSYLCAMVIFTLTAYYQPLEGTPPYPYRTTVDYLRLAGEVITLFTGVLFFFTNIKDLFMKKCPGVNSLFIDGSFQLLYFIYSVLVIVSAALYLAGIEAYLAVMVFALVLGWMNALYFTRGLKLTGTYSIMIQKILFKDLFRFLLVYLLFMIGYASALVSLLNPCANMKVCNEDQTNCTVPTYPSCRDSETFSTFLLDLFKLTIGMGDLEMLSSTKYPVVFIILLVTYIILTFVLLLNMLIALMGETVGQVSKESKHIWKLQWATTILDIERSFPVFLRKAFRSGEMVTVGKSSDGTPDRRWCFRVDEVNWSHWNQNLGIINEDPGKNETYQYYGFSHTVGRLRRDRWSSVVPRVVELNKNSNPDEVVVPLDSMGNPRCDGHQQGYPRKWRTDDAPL
Chain of Transient receptor potential cation channel subfamily V member 1 (Homo sapiens) (Q8NER1 whole entry): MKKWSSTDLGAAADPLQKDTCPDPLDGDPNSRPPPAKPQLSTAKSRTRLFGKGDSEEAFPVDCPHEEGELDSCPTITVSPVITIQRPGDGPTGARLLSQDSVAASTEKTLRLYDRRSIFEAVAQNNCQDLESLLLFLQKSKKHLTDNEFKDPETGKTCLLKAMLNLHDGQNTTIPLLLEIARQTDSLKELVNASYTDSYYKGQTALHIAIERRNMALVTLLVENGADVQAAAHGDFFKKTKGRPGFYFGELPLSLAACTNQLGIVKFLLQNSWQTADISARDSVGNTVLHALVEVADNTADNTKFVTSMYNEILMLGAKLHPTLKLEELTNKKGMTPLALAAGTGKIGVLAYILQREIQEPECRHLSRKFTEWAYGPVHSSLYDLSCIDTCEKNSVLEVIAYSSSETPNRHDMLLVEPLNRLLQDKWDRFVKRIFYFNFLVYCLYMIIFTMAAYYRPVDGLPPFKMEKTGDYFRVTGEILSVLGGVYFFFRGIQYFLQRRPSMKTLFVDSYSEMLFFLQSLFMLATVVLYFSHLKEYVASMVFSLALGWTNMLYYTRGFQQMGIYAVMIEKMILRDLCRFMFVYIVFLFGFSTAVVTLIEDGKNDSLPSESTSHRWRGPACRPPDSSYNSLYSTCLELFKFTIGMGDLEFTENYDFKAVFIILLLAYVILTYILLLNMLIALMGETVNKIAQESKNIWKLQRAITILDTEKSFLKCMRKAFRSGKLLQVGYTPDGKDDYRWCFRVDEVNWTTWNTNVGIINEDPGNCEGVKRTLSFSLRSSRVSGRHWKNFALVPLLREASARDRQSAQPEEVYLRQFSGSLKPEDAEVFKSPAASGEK

`CC(C)CC(=O)c1sc(-c2cccc(F)c2)nc1O` showed a half-life [1] of 156 min, a pKa [2] of 4.3 and a logD [3] of 1.35. The half-life [4] was 49.8 min and the IC50 [5] was 0.289 µM.

Work on `O=C(c1sc(-c2cccc(F)c2)nc1O)N1CCCOC1` yielded an IC50 [5] of over 100 µM.

With `CCn1nnc(-c2sc(-c3cccc(F)c3)nc2O)n1` the half-life [1] was over 5 min, the pKa [2] was 5.9 and the logD [3] was 2. The clearance [6] was 0.187 L/h/kg, the half-life [7] was 307 min and the half-life [4] was 38 min. For the same molecule, the Cmax [8] was 0.047 µg/mL, the half-life [9] was 44.4 min and the remaining at 1 h [10] was 95%. The remaining at 1 h [11] was 92%, the half-life [12] was 56.7 min and the solubility [13] was 0.631 mM (≈ 184 µg/mL). The half-life [14] was under 30 min, the bioavailability [15] was 1% and the Vd [16] was 0.082 L/kg.

Molecule `CCN(C(=O)/C=C/c1cccc([N+](=O)[O-])c1)c1ccccc1` has a logP [17] of 3.6, an IC50 [5] of 0.575 µM and a remaining at 0.5 h [14] of 32%.

With `CCOC(=O)c1sc(-c2ccccc2)nc1CO` the IC50 [5] was over 100 µM.

`CCNC(=O)c1sc(-c2ccccc2)nc1O` showed an IC50 [5] of over 100 µM.

In the case of `O=C(c1sc(-c2ccccc2O)nc1O)N1CCCO1`, the IC50 [18] is reported as 0.0045 µM, the half-life [19] is reported as 53 min and the Papp at 0.1 % [20] is reported as 483 nm/s. For the same molecule, the pKa [2] was 9.3, the logD [3] was 0.77 and the inhibition [21] was “inactive”. For the same molecule, the inhibition [22] was “inactive”, the inhibition [23] was “inactive” and the solubility [13] was 9.7 mM (≈ 2840 µg/mL). For the same molecule, the inhibition [24] was “inactive”.

`Oc1nc(-c2cccc(F)c2)sc1-c1nn[nH]n1` gave an IC50 [5] of over 100 µM.

With `COc1cccc(NS(=O)(=O)c2c(C)cc(C)c([N+](=O)[O-])c2C)c1` the pKa [2] was 7.8, the logD [3] was 3.19 and the logP [17] was 4.33. It also gave a remaining at 0.5 h [14] of 29%.

Work on `Cc1nc(-c2sc(-c3cccc(F)c3)nc2O)no1` yielded an IC50 [5] of 1.8 µM.

`CCn1nnc(-c2sc(-c3ccc(O)cc3)nc2O)n1` showed an IC50 [5] of 11.6 µM.

With `O=C(O)c1sc(-c2ccccc2)nc1O` the IC50 [5] was over 100 µM.

For `CCOC(=O)c1sc(-c2ccccc2)nc1N`, the IC50 [5] was over 100 µM.

`CCOC(=O)c1sc(-c2cccc(F)c2)nc1O` gave a half-life [1] of over 5 min, a pKa [2] of 4.7 and a logD [3] of 1.5. It also gave a half-life [7] of 137 min, a half-life [4] of 27 min and an IC50 [5] of 0.039 µM. It also gave a clearance [25] of 1.44 L/h/kg, a Cmax [8] of 2.14 µg/mL and a half-life [26] of 33.6 min. It also gave a remaining at 4 h [27] of 105%, a solubility [13] of 0.08 mM (≈ 21.4 µg/mL) and a Stability [28] of 50%. For the same molecule, the bioavailability [15] was 15% and the Vd [29] was 0.259 L/kg.

`Cc1nnc(-c2sc(-c3cccc(F)c3)nc2O)o1` gave an IC50 [5] of 9.1 µM.

`CCn1nnc(-c2sc(-c3ccc(F)cc3)nc2O)n1` gave an IC50 [5] of 0.286 µM.

For `CCn1nnc(-c2sc(-c3cccc(N)c3)nc2O)n1`, the IC50 [5] was 0.061 µM.

For `CC(=O)c1sc(-c2cccc(F)c2)nc1O`, the half-life [1] was 108 min, the pKa [2] was 4.1 and the logD [3] was 0.77. It also gave a half-life [4] of 35.2 min.

`O=C(c1sc(-c2cccc(F)c2)nc1O)N1CCCCCO1` showed an IC50 [5] of 0.032 µM.

In the case of `CCn1nnc(-c2sc(-c3c(Cl)cccc3Cl)nc2O)n1`, the IC50 [5] is reported as 16.5 µM.

`CCn1nnnc1-c1sc(-c2cccc(F)c2)nc1O` showed an IC50 [5] of over 100 µM.

For `CCON(C)C(=O)c1sc(-c2cccc(F)c2)nc1O`, the IC50 [5] was 1.68 µM.

`CCOC(=O)c1ccc(-c2cccc(F)c2)cc1O` showed an IC50 [5] of over 100 µM.

Work on `CCC(=O)c1sc(-c2cccc(F)c2)nc1O` yielded an IC50 [18] of 0.033 µM, a half-life [1] of 136 min and a half-life [30] of 189 min. The logD [3] was 0.44, the half-life [7] was 188 min and the half-life [4] was 118 min. For the same molecule, the IC50 [5] was 0.029 µM, the clearance [31] was 0.319 L/h/kg and the Cmax [8] was 10.7 µg/mL. The inhibition [21] was “inactive”, the inhibition [23] was “inactive” and the inhibition [32] was “inactive”. The solubility [13] was 15.2 mM (≈ 3820 µg/mL), the inhibition [24] was “inactive” and the bioavailability [15] was 98.8%. For the same molecule, the Vd [33] was 1.69 L/kg and the IC50 [34] was 0.0085 µM.

`O=C(O)c1ccc(C(=O)O)c(-c2c3ccc(=O)cc-3oc3cc(O)ccc23)c1` [6-Carboxyfluorescein] gave a Papp at 0.1 % [20] of 19 nm/s.

Work on `COC(=O)c1nc(-c2ccccc2)sc1O` yielded an IC50 [5] of over 100 µM.

`CSc1cc(-c2ccc(Cl)cc2)[nH]n1` gave a logP [17] of 3.57 and a remaining at 0.5 h [14] of 41%.

Work on `CCn1nnc(-c2sc(-c3cccc(O)c3)nc2O)n1` yielded an IC50 [5] of 0.239 µM.

Molecule `CCOC(=O)c1sc(-c2ccccc2)nc1O` has an IC50 [5] of 0.032 µM.

Work on `O=C(c1sc(-c2cccc(F)c2)nc1O)N1CCOCC1` yielded an IC50 [5] of 12.2 µM.

Work on `Cn1nnc(-c2sc(-c3cccc(F)c3)nc2O)n1` yielded an IC50 [5] of 0.214 µM.

`COC(=O)c1sc(-c2ccccc2)nc1O` gave a pKa [2] of 6.3, a logD [3] of 2.5 and a logP [17] of 3.77. It also gave a remaining at 0.5 h [14] of 42%.

In the case of `CCOC(=O)c1sc(-c2ccccc2)nc1OC`, the IC50 [5] is reported as over 100 µM.

In the case of `CCN(CC)c1ccc2c(-c3ccccc3C(=O)O)c3ccc(=[N+](CC)CC)cc-3oc2c1.[Cl-]` [RHODAMINE], the Papp at 0.1 % [20] is reported as 366 nm/s.

With `CCn1nnc(-c2sc(-c3ccc(Cl)cc3)nc2O)n1` the IC50 [5] was 7.55 µM.

Molecule `CCCC(=O)c1sc(-c2cccc(F)c2)nc1O` has a half-life [1] of 127 min, a pKa [2] of 4.31 and a logD [3] of 1.18. It also gave a half-life [4] of 39.3 min.

Work on `CCOC(=O)c1oc(-c2ccc(Cl)cc2)nc1O` yielded an IC50 [5] of over 100 µM.

`O=C(c1sc(-c2cccc(F)c2)nc1O)N1CCCO1` showed a half-life [19] of over 120 min, a Papp at 0.1 % [20] of 164 nm/s and a pKa [2] of 6.3. It also gave a logD [3] of 0.82 and a solubility [13] of 7.1 mM (≈ 2090 µg/mL).

In the case of `CCOC(=O)c1sc(-c2cccc(Cl)c2)nc1O`, the IC50 [5] is reported as 1.3 µM.

`CCOC(=O)Cc1sc(-c2ccccc2)nc1O` gave an IC50 [5] of 0.95 µM.

Work on `CC(C)C(=O)c1sc(-c2cccc(F)c2)nc1O` yielded a half-life [1] of 97.8 min, a pKa [2] of 4.27 and a logD [3] of 0.91. For the same molecule, the half-life [4] was 59.1 min.

`CCOC(=O)c1cnc(-c2ccccc2)s1` gave an IC50 [5] of over 100 µM.
